Laboratory results reported in article PMC11513842, “Development of an orally bioavailable CDK12/13 degrader and induction of synthetic lethality with AKT pathway inhibition” (Cell Reports Medicine, 2024).

Columns and labels:
PC310 organoids = experiment: PC310 organoid viability dose-response; type: cell-based; conditions: Homo sapiens, Figure S1J
[1] = system: benign immortalized cell lines (PrEC, WPMY-1, BPH-1, RWPE1, PNT2, MCF10A, MCF12A); experiment: Cell viability, benign immortalized cell lines; type: cell-based; conditions: Homo sapiens, 120 h; most benign immortalized cell lines, 5 days; read-out: half-maximal inhibitory concentration [IC50]
Protocol: (§1) Cells were seeded in 96-well plates and incubated at 37°C with 5% CO2 overnight. A series of compound dilutions were added into the cells. After 5 days incubation, cell proliferation was tested using the CellTiter-Glo assay (Promega) according to the manufacturer’s protocol. Luminescence was measured using the Infinite M1000 Pro plate reader (Tecan). Data analysis was conducted using GraphPad Prism software.

prostate cancer cells = experiment: Cell viability, prostate cancer cells; type: cell-based; conditions: Homo sapiens, Figure 3A
Protocol: as §1

CDK12 and CDK13 = conditions: VCaP cells
Protocol: After treatment of varying conditions, cell lysates were prepared using RIPA buffer (ThermoFisher Scientific) supplemented with cOmplete protease inhibitor cocktail tablets (Sigma-Aldrich). The Pierce BCA Protein Assay Kit ([…]) was used to determine the protein concentrations. Proteins with an equal amount from each sample were loaded on NuPAGE 3–8% Tris-Acetate or 4–12% Bis-Tris protein gels (ThermoFisher Scientific) and subsequently transferred to membranes, which were blocked using 5% nonfat milk. Following blocking at room temperature for 1 h, the membrane was further incubated with varying primary antibodies at 4°C overnight. HRP-conjugated secondary antibodies were used for detection, and membrane imaging was conducted using an Odyssey Fc Imager (LI-COR Biosciences).

[2] = Pharmacokinetic profile in CD-1 mice; type: in vivo; conditions: plasma, CD-1 mouse; for AUC: read-out: AUC(0-⊠)
[3] = Pharmacokinetic profile in Sprague Dawley rats; type: in vivo, rat; conditions: Sprague-Dawley, rat, plasma, SD rats; for AUC(0-t): read-out: AUC(0-t); for Tmax: read-out: Tmax
[4] = system: castrated VCaP xenograft (VCaP-CRPC); experiment: VCaP castration-resistant prostate cancer xenograft efficacy; type: in vivo, mouse; conditions: i.v. 30 mg/kg 3x/week, 18 days
Protocol: (§2) Six-week-old male CB17SCID mice obtained from Charles River (Stock # 236), were used to establish subcutaneous tumors on both dorsal flanks. Tumor dimensions were measured biweekly using digital calipers, applying the formula (π/6) (L × W^2), where L and W represent tumor length and width, respectively. At the study conclusion, mice were euthanized, and tumors were excised and weighed. The University of Michigan Institutional Animal Care and Use Committee (IACUC) approved all in vivo studies.
For the VCaP castration-resistant tumor model, 3×10^6 VCaP cells were subcutaneously injected into both dorsal flanks of mice using a serum-free medium mixed with 50% Matrigel (BD Biosciences). Upon tumors reaching palpable size (∼200 mm^3), animals underwent castration. When tumors regrew to their pre-castration size, mice were randomized for treatment with 30 mg/kg YJ9069 or vehicle via intravenous injection or 100 mg/kg YJ1206 or vehicle, […]

WA74 PDX = experiment: WA74 patient-derived xenograft efficacy; type: in vivo, mouse
Protocol: as §2
(§3) WA74 PDX model was developed at the University of Michigan during collection of a rapid autopsy case as part of the Michigan Legacy Tissue Program (MLTP). PC310 PDX model was obtained from Erasmus Medical Center, Rotterdam, the Netherlands. Both PDX lines were propagated in male CB17SCID mice by surgically implanting 2 mm^3 tumor fragments, coated with 100% Matrigel, into both flanks of mice. When tumors reached approximately 200 mm^3, mice were randomized into treatment groups. These groups received either 30 mg/kg YJ9069 via intravenous injection or 100 mg/kg YJ1206 by oral gavage, both administered three times per week, with or without 15 mg/kg uprosertib by oral gavage five days per week for 3–4 weeks. In accordance with IACUC guidelines, the maximum tumor size was limited to 2.0 cm in any dimension, and mice were euthanized if xenografts reached this endpoint.

PC310 PDX = experiment: PC310 patient-derived xenograft efficacy; type: in vivo, mouse; conditions: i.v. 30 mg/kg 3x/week
Protocol: as §2, §3

[5] = Toxicity study in CD-1 immune-competent mice; type: in vivo, mouse
VCaP cells = experiment: Comet assay; type: cell-based, human; conditions: 100 nM, 12 h
Protocol: VCaP cells were seeded in 6-well plates one day prior to treatment. […] After 12 h incubation, the cells were trypsinized and resuspended at a concentration of 1 × 10^5 cells/mL in ice-cold PBS. The OxiSelect Comet Assay Kit (Cell Biolabs, STA-351) was used to assess DNA damage. Following the manufacturer’s protocol, cells were combined with pre-heated comet agarose at a 1:10 ratio, mixed thoroughly, and then transferred onto slides. The slides were incubated horizontally in the dark at 4°C for 20 min. Afterward, they were immersed in pre-chilled lysis buffer for 40 min at 4°C in the dark, followed by a 30-min incubation in pre-chilled alkaline solution at 4°C in the dark. Electrophoresis was then performed using alkaline solution at 30 V for 20 min. After electrophoresis, the slides were rinsed three times with pre-chilled deionized water, following with 70% ethanol for 5 min and completely dried at 37°C for 30 min. Subsequently, 100 μL of diluted Vista Green DNA dye was applied to each well. After 15 min incubation at room temperature, the comets were observed using a fluorescence microscope and quantified using ImageJ. The quantification figure was generated using GraphPad Prism software.

Compound: O=C1CCC(N2C(=O)c3cccc(OCC(=O)N4CCN(c5ccc(N(C(=O)NCc6ccccc6)C6CCC(Nc7ncc8ccccc8n7)CC6)cc5)CC4)c3C2=O)C(=O)N1 (centres unmarked) [YJ9069]
- IC50 (PC310 organoids): 107 nM
- IC50 [1]: > 10000 nM
- IC50 (prostate cancer cells): < 200 nM
- CDK12/13 degradation (immunoblot) (CDK12 and CDK13): enhanced degradation of both CDK12 and CDK13 proteins compared to 7f
- AUC(0-t) ([2]; iv, i.v. 2.5 mg/kg): 3150 ng·h/mL
- Cmax ([2]; iv, i.v. 2.5 mg/kg): 3650 ng/mL
- Tmax ([2]; iv, i.v. 2.5 mg/kg): 0.08 h
- clearance ([2]; iv, i.v. 2.5 mg/kg): 13.1 mL/min/kg
- half-life ([2]; iv, i.v. 2.5 mg/kg): 5.23 h
- AUC ([2]; iv, i.v. 2.5 mg/kg): 3220 ng·h/mL
- bioavailability ([2]; oral, p.o. 10 mg/kg vs i.v. 2.5 mg/kg, read-out: F% (oral bioavailability)): 1.02%
- AUC(0-t) ([2]; po, p.o. 10 mg/kg): 128 ng·h/mL
- Cmax ([2]; po, p.o. 10 mg/kg): 55 ng/mL
- Tmax ([2]; po, p.o. 10 mg/kg): 0.25 h
- half-life ([2]; po, p.o. 10 mg/kg): 2.44 h
- AUC ([2]; po, p.o. 10 mg/kg): 145 ng·h/mL
- Cmax ([3]; iv, i.v. 2.5 mg/kg): 4130 nM
- clearance ([3]; iv, i.v. 2.5 mg/kg): 14.1 mL/min/kg
- half-life ([3]; iv, i.v. 2.5 mg/kg): 4.39 h
- AUC ([3]; iv, i.v. 2.5 mg/kg, read-out: AUC(0-)): 2970 ng·h/mL
- AUC(0-t) ([3]; iv, i.v. 2.5 mg/kg): 2930 ng·h/mL
- Tmax ([3]; iv, i.v. 2.5 mg/kg): 0.08 h
- Cmax ([3]; oral 10 mg/kg): 6 nM
- bioavailability ([3]; oral 10 mg/kg vs i.v. 2.5 mg/kg, read-out: F(%) (bioavailability by oral gavage)): 0.04%
- AUC(0-t) ([3]; oral 10 mg/kg): 5.06 ng·h/mL
- Tmax ([3]; oral 10 mg/kg): 1.56 h
- treated animals with tumor regression exceeding 50% ([4]; VCaP-CRPC): 73%
- partial response (PR), waterfall plot (RECIST) ([4]; castrated VCaP): 82%
- stable disease (SD), waterfall plot (RECIST) ([4]; castrated VCaP): 18%
- anti-tumor effect (regression) (WA74 PDX; 30 mg/kg, 3 times/week, 21 days): regression in all animals
- partial response (PR), waterfall plot (RECIST) (WA74 PDX; i.v. 30 mg/kg 2x/week): 43%
- stable disease (SD), waterfall plot (RECIST) (WA74 PDX; i.v. 30 mg/kg 2x/week): 43%
- partial response (PR), waterfall plot (RECIST) (WA74 PDX; i.v. 30 mg/kg 3x/week): 100%
- progressive disease (PD), waterfall plot (RECIST) (PC310 PDX): 63%
- stable disease (SD), waterfall plot (RECIST) (PC310 PDX): 31%
- toxicity ([5]; CD-1 female mice): no significant toxicity was observed
- genitourinary (GU) weight ([5]; CD-1 male mice): decrease in genitourinary (GU) weight
- serum chemistry and complete blood analyses ([5]; CD-1 male mice): no significant changes
- body weight loss ([5]; CD-1 male mice, doses of 30 mg/kg and 50 mg/kg, 3x/week): 10%
- toxicity in vivo ([5]; administered intravenously): mild to intermediate toxicity
- DNA damage (tail moment) (VCaP cells): significant increase in the tail moment
